The values below come from patent US20240261443A1, “COMPOUNDS AND COMPOSITIONS USEFUL AS RADIOTRACERS FOR IMAGING OF REACTIVE OXIDATIVE SPECIES” (Wake Forest University Health Sciences, priority 2019, published 2024).

Data set [1] in a line: Ex vivo biodistribution in normal ICR mice. The conditions noted are these: for blood uptake / kidney uptake / liver uptake: in %ID/g (unit assumed).
A further data set relates to PC3 tumors. Kind of data set: microPET imaging in PC3 tumor-bearing mice. The conditions noted are these: ROI analysis. The format is in vivo.
The next data set deals with PC3 cell line. Kind of data set: MTT cytotoxicity IC50 assay, PC3. The class given is cell-based, human. The conditions noted are these: Homo sapiens. The procedure: The cells were seeded at density 5×10^3 cells/well. After 24 h pre-incubation period, cells were treated with 0.01 mM to 2.0 mM of freshly prepared KS1 and KS2 along with ascorbate (n=3) for 48 h. 0.2% of DMSO served as vehicle control. After 48 h, the solutions were removed from all plates and MTT assays performed following the published protocols. IC50 values are presented as mean±SD from at least three independent experiments.
There is growing evidence for a therapeutic role of ascorbate against several cancers (Creagan et al., Failure of High-Dose Vitamin C (Ascorbic Acid) Therapy to Benefit Patients with Advanced Cancer. New England Journal of Medicine 1979, 301 (13), 687-690; Chen et al., Pharmacologic ascorbic acid concentrations selectively kill cancer cells: action as a pro-drug to deliver hydrogen peroxide to tissues. Proceedings of the National Academy of Sciences of the United States of America 2005, 102 (38), 13604-13609; Prasad et al., High Doses of Multiple Antioxidant Vitamins: Essential Ingredients in Improving the Efficacy of Standard Cancer Therapy. Journal of the American College of Nutrition 1999, 18 (1), 13-25). Pharmacologic doses of ascorbate (oral and/or intravenous) could increase the effectiveness of cancer chemotherapy in many solid cancer therapies (López-Lizaro, Dual role of hydrogen peroxide in cancer: Possible relevance to cancer chemoprevention and therapy. Cancer Letters 2007, 252 (1), 1-8; Li et al., New Developments and Novel Therapeutic Perspectives for Vitamin C. The Journal of Nutrition 2007, 137 (10), 2171-2184; Klimant et al., Intravenous vitamin C in the supportive care of cancer patients: a review and rational approach. Current Oncology 2018, 25 (2), 139-148. The primary objective of this experiment was to determine the cytotoxic effects of KS1 at pharmacological concentrations. Cancer cell lines were selected based on their high ROS implications. […] These cell lines have been studied extensively with ascorbic acid treatments (Schoenfeld et al., O(2)(·−) and H(2)O(2)-Mediated Disruption of Fe Metabolism Causes the Differential Susceptibility of NSCLC and GBM Cancer Cells to Pharmacological Ascorbate. Cancer Cell 2017, 31 (4), 487-500.e8; Chen et al., Modulators of Redox Metabolism in Head and Neck Cancer. Antioxidants & Redox Signaling 2017, 29 (16), 1660-1690; Khandrika et al., Oxidative stress in prostate cancer. Cancer Lett 2009, 282 (2), 125-136.
In general terms: Tetrazolium assays rely on reduction of a dye to a coloured formazan, in cell work by metabolically active cells.

The next data set relates to normal organs. Put plainly: Toxicity observation in blocking studies, KS1 15 mg/kg. The format is in vivo. The conditions noted are these: 15 mg/kg injected. The procedure: Athymic nude mice (Taconic Farms) were housed in a pathogen-free facility of the Animal Research Program at Wake Forest School of Medicine under a 12:12-h light/dark cycle and fed ad libitum. All animal experiments were conducted under IACUC approved protocols in compliance with the guidelines for the care and use of research animals established by Wake Forest Medical School Animal Studies Committee. PC3 cells (1×10^5 cells suspended in 10 μL matrigel) were implanted in the left flank of nude mice (25-30 g) as described previously. […] Samples of tumor, blood, brain, heart, lung, liver, spleen, pancreas, kidney, muscle and bone were harvested, weighed, and gamma counted with a standard dilution of the injectate (Chu et al., Development of a PET Radiotracer for Noninvasive Imaging of the Reactive Oxygen Species, Superoxide, in vivo. Organic & biomolecular chemistry. 2014; 12:4421-31; Sai et al., Radiolabeling and initial biological evaluation of [(18)F]KBM-1 for imaging RAR-α receptors in neuroblastoma. Bioorganic & medicinal chemistry letters. 2017; 27:1425-7; Kumar et al., Radiosynthesis and in Vivo Evaluation of [11C]MPC-6827, the First Brain Penetrant Microtubule PET Ligand. […] The percentage of the injected dose per gram of tissue (% ID/g) was calculated.

Regarding `O=C1O/C(=C/CCl)C(O)=C1OCc1ccc(OCC[18F])cc1` [[^18F]KS1], in data set [1] (5 min post injection), the blood uptake is 1.361±0.71, the kidney uptake came out at 14.793±1.33 and the liver uptake was 9.72±2.55. In data set [1] (120 min post injection), this molecule displayed a blood uptake of 0.31±0.071, a kidney uptake of 3.23±1.30 and a liver uptake of 2.124±1.12. Moreover, in data set [1] (normal ICR mice), the bone uptake entry was “No significant bone uptake” and the brain uptake result is listed as “Poor brain uptake”. The “tumor uptake with nonradioactive KS1 pretreatment, lower than baseline” value in the data set on PC3 tumors (KS1 15 mg/kg 45 min before tracer) is on record as roughly 3 fold. For the same molecule, the “tumor uptake on mPET scans” value in the data set with PC3 tumors (baseline) was “high tumor uptake”.
By IC50 is commonly meant the concentration at which inhibition is half-maximal. Turning to `O=C1O/C(=C/CCl)C(O)=C1OCc1ccc(OCCF)cc1` [KS1, (E)-5-(2-chloroethylidene)-3-(4-(2-fluoroethoxy)benzyloxy)-4-hydroxyfuran-2(5H)-one], the IC50 stood at 311 µM with PC3 cell line (PC-3, Example 7, 48 h) and 1010 µM with PC3 cell line (PC-3, Example 13). For the same molecule, the “toxicity in normal organs” value in the data set with normal organs is “did not observe any toxicity”.
